{"source": "patent US12012408B2", "about": "“Purine compounds and method for the treatment of cancer” (THE ROYAL INSTITUTION FOR THE ADVANCEMENT OF …, priority 2018, dated 2024)", "key": {"[1]": {"tested_on": "MDA-MB-231 and BT-20 cells", "assay": "MTT assay (short-term cell viability)", "assay_type": "cell-based", "protocol": "The short-term effects of SLLN-15 on tumor cell growth were assessed using the 3-(4,5-dimethylthiazol-2-yl)-2,5-diphenylte-trazolium bromide (MTT; Sigma) assay. Cells were seeded at a density of 5000 cells/well in a 96-well plate and treated with SLLN-15 as indicated concentration or DMSO for 24 hours. MTT solution (5 mg/ml in RPMI 1640 medium) was added (20 μl/well), and plates were incubated for 4 hours in dark at 37° C., then the purple formazan crystals were then dissolved in 100 μl MTT solvent (4 mM HCl and 0.1% NP-40 in isopropanol). The plates were read on FLUOstar OPTIMA microplate reader (BMG Labtech, Ortenberg, Germany) at 570 nm. Assays were performed in triplicate on three independent experiments."}, "[2]": {"tested_on": "4T1 cells (triple-negative breast carcinoma)", "assay": "In vivo orthotopic allograft model of breast cancer", "set-up": "species or system BALB/c mice", "protocol": "All experiments were carried out according to protocol number 4101 of the McGill University Animal Care Committee. Mouse mammary carcinoma 4T1 cells (1×10^6 cells/each mouse) were transplanted into the mammary fat pad of BALB/c mice. […] Tumor size was measured using a caliper, and tumor volume was calculated as […] (length×width2). Mice were sacrificed 40 days after transplanting. Tumor tissues were isolated and fixed in 10% formalin. The lungs were fixed in 10% Bouin's fixative and lung metastatic nodules on the surface were counted using a stereomicroscope (Optimax; Leica)."}, "[3]": {"tested_on": "autophagy (LC3) in MDA-MB-231 and BT-20 cells", "assay": "Autophagy markers: LC3 western blot, LC3 puncta immunofluorescence, mCherry-GFP-LC3 flux", "assay_type": "cell-based", "protocol": "(§1) Sub-confluent cells were washed with PBS, lysed in RIPA buffer (50 mM Tris-HCl at pH7.5, 150 mM sodium chloride, 1% tritonX-100, 0.1% SDS, 2 mM EDTA and 25 mM sodium fluoride) supplemented with 1 mM PMSF and protease inhibitor cocktail (Roche) for 10 min on ice and centrifuged (13,000 rpm at 4° C. for 20 min) to separate cell lysate. Cell lysate (50 μg protein, as measured by the Bradford protein assay) was then added with SDS sample buffer (Tris at pH 6.8, 20% glycerol, 5% SDS, bromophenol blue and β-mercaptoethanol) and boiled for 5 min. Samples were then resolved through 13% SDS-PAGE gels, transferred to nitrocellulose membrane, blotted with specific first antibodies at different dilution in cold room overnight, and then amplified with horseradish peroxidase-conjugated secondary antibodies for 1 hour in room temperature and enhanced by chemiluminescence detection system.\nCells were grown on 18-mm cover glass, placed in 6-well culture plate for 24 hours, rinsed in PBS, fixed with 4% paraformaldehyde/PBS for 10 min, washed twice in PBS with 0.2% TritonX-100, blocked in PBS with 0.2% Triton X-100 containing 1% BSA (Bioshop) and incubated with primary antibodies overnight at 4° C. (all in 1/100 diluted in blocking solution). The cells were washed with PBS containing 0.2% TritonX-100 and subsequently incubated with Alexa Fluor 488-labelled, Alexa Fluor 594-labelled, or Alexa Fluor 647-labelled secondary antibodies (all were used at 1/500 dilution in blocking solution) for 1 hour in room temperature. The nuclei were stained with DAPI (0.1 μg/ml) for 5 min before mounted with aqueous mounting medium. Cells were imaged using WaveFX spinning disk confocal microscope system (Quorum Technologies INC.). Images shown are representative of three independent experiments.\nIn order to determine whether SLLN-15 affects autophagy in triple-negative breast cancer cells, we first investigated its effect on the formation of autophagosomes by detecting the conversion of LC3-I to lipidated LC3-II and the distribution of endogenous LC3 puncta, both classic markers of autophagy regulation (Klionsky D J et al. Guidelines for the use and interpretation of assays for monitoring autophagy (3rd edition) Autophagy 2016; 12:1-222). […] In order to visualize the induction of autophagy by SLLN-15, we then used transmission electron microscopy.\nDistinguishing between autophagy inducers and inhibitors is a delicate task, since both cause a build-up of LC3-II and LC3-positive puncta (Mizushima N, et al. Methods in mammalian autophagy research Cell 2010; 140:313-26). Therefore, to further determine the role of SLLN-15 on autophagy, we next investigated its impact on autophagic flux using a tandem monomeric mCherry-GFP-tagged LC3. […] SLLN-15-induced autophagic flux was further examined in the presence or absence of the autophagosome-lysosome fusion inhibitor, chloroquine (CQ) (Mizushima N, et al. Methods in mammalian autophagy research Cell 2010; 140:313-26). […] This observation was further confirmed by detecting the number of LC3 puncta in SLLN-15-treated cells, as compared to SLLN-15 combined with CQ (FIG. 3D)."}, "[4]": {"tested_on": "Akt/mTOR pathway in MDA-MB-231 and BT-20 cells", "assay": "Western blot of the Akt/mTOR pathway", "assay_type": "cell-based", "conditions": "FIG. 4A", "protocol": "as §1\nThe PI3K/Akt/mTOR pathway is a well-established pathway that is frequently activated in cancer cells and acts as a key negative regulator of autophagy (Schmelzle T et al. TOR, a central controller of cell growth Cell 2000; 103:253-62; Shi J et al. IL10 inhibits starvation-induced autophagy in hypertrophic scar fibroblasts via cross talk between the IL10-IL10R-STAT3 and IL10-AKT-mTOR pathways Cell Death Dis 2016; 7:e2133). […]"}, "In vivo tolerability": {"assay": "In vivo tolerability", "set-up": "species or system mice", "conditions": "administered intraperitoneally", "excerpt": "Breast cancer stem-like cells (BCSCs), heterogeneously subsisting as CD24low/CD44high and ALDHhigh subpopulations, are enriched in aggressive breast cancer subtypes and believed to be responsible for driving metastatic colonization. Despite evidence of a clinical association between BCSC and poor prognosis, effective therapeutic means to target this cell population is lacking. We identified SLLN-15 as a compound with selective anti-sternness activity across a panel of cell lines expressing ALDHhigh and CD24low/CD44high markers, including MDA-MB-231, SUM-149PT, BT-20, SKBR3, 4T1 and several anaplastic thyroid cell lines. […] In summary, our data foster that targeting regulatory networks driving sternness represent important therapeutic targets for treating metastatic breast disease."}}, "data": [{"smiles": "c1nc2nc(Nc3ccc(N4CC[Se]CC4)cc3)nc(N[C@H]3CC[Se]C3)c2[nH]1", "note": "[SLLN-15]", "values": [{"measurement": "short-term and long-term cell viability (MTT and clonogenic assay)", "setting": "[1]; SLLN-15 in presence of autophagy inhibitor 3-MA, FIGS. 5D and E", "value": "rescued both short-term and long-term cell viability"}, {"measurement": "cell viability (MTT)", "setting": "[1]; time-dependent, SLLN-15 compared with vorinostat, FIG. 6A", "value": "markedly decreased cell viability"}, {"measurement": "overall cell viability (MTT)", "setting": "[1]; treatment for 24 hours, dose-dependent, FIG. 1C", "value": "markedly decreased overall cell viability"}, {"measurement": "tumor volumes", "setting": "[2]; 30 mg/kg given PO, compared to vehicle, FIG. 1D", "value": "reduced"}, {"measurement": "tumor weights", "setting": "[2]; 30 mg/kg given PO, compared to vehicle, FIG. 1E", "value": "reduced"}, {"measurement": "tumor allograft growth rate", "setting": "[2]; 30 mg/kg given PO, compared to vehicle, FIGS. 1D and E", "value": "grew at a slower rate"}, {"measurement": "number of lung metastases", "setting": "[2]; compared with vehicle-treated animals, FIG. 1F", "value": "significant inhibition of the number of lung metastases"}, {"measurement": "expression level of p62/SQSTM1, Beclin1, Atg5 and Atg7", "setting": "[3]; FIG. S2", "value": "no changes in their expression levels were observed"}, {"measurement": "autophagic flux, mCherry-GFP-tagged LC3", "setting": "[3]; MDA-MB-231 and BT-20 cells, FIGS. 3A and B", "value": "increased formation of yellow fluorescence (autophagosomes) and red fluorescence (autophagolysosomes)"}, {"measurement": "LC3-II/LC3-I ratio", "setting": "[3]; SLLN-15 combined with chloroquine (CQ), compared to SLLN-15 alone, FIG. 3C", "value": "enhanced LC3-II/LC3-I ratio"}, {"measurement": "LC3-II/I ratio", "setting": "[3]; combination of SLLN-15 with 3-methyladenine (3-MA), FIG. 5C", "value": "significantly decreases LC3-II/I ratio"}, {"measurement": "LC3-II conversion and LC3 puncta", "setting": "[3]; dose-dependent, FIGS. 2A and B", "value": "increased LC3-II conversion and LC3 puncta"}, {"measurement": "phosphorylation levels of Akt, mTOR, p70S6K, S6 and 4EBP1", "setting": "[4]", "value": "decreased phosphorylation levels"}, {"measurement": "tolerability", "setting": "In vivo tolerability", "value": "well-tolerated"}]}]}
